# Test results as given in patent publication US20100120921A1, “RENIN INHIBITORS FOR TREATMENT OF HYPERTENSION IN PATIENTS WITH HIGH SODIUM DIET” (NOVARTIS AG, priority 2007, published 2010).
# Entries after “also recorded” stand apart in the source; their conditions may differ.
# System: patients with systolic hypertension
# Experiment: 12-week randomized, open-label, multi-center, cross-over clinical study of aliskiren 300 mg on high versus low sodium diet (24-hour ABPM)
# Format: in vivo, human
# Conditions: aliskiren 300 mg once daily; 4 weeks high sodium (≧200 mmol/day) vs 4 weeks low sodium (≦100 mmol/day) diet; non-inferiority margin 4 mmHg
# Method: The effect of Aliskiren (300 mg) on reduction in mean 24-hour ambulatory blood pressure systolic hypertensive patients using low and high sodium diets is examined in a 12-week, randomized, open-label, multi-center, cross-over study. Subjects with systolic hypertension have a 2-4 week washout of their current antihypertensive medications. Patients who meet 8-hour ABPM criteria at week 0 (ABPM mean daytime systolic blood pressure ≧135 mmHg and <160 mmHg) are randomized to either a high sodium (≧200 mmol/day) or low sodium (≦100 mmol/day) diet and will be dispensed aliskiren 300 mg.
# After 2 and 4 weeks on the assigned sodium level diet, 24-hour urine (Bentley, Brook 2006) collections for sodium and creatinine are collected and measured to confirm adherence to the diet. After 4 weeks on the assigned sodium level diet, 24-hour ABPM is measured. Patients are then crossed over to the other level sodium diet. Those patients who had high sodium diet for the first four weeks start having low sodium diet for the next 4 weeks and vice versa. After 2 and 4 weeks on the new diet, 24-hour urine collections for sodium and creatinine are again collected and measured to confirm adherence to the diet. After 4 weeks on the newly assigned sodium level diet, 24-hour ABPM are measured. […]
smiles,measurement,value
"COCCCOc1cc(C[C@@H](C[C@H](N)[C@@H](O)C[C@H](C(=O)NCC(C)(C)C(N)=O)C(C)C)C(C)C)ccc1OC [aliskiren, 2(S),4(S),5(S),7(S)—N-(3-amino-2,2-dimethyl-3-oxopropyl)-2,7-di(1-methylethyl)-4-hydroxy-5-amino-8-[4-methoxy-3-(3-methoxy-propoxy)phenyl]-octanamide]",antihypertensive effect (change in mean 24-hour ambulatory blood pressure) on high versus low sodium diet,the same (within the BP boundaries indicated) regardless of whether the subject ingests a high or a low sodium diet; also recorded: reduce blood pressure efficiently irrespective of the sodium intake
